Data: patent publication US20020081661A1 (Synaptic Pharmaceutical Corporation, priority 1992, published 2002)
Read-outs that look alike come from different tables or passages of the source.

Assays:
[1] = target: T1, rat 5-HT4 receptor S10-87 (CG-7) (Rattus norvegicus, UniProt Q62758); assay: [3H]5-HT radioligand binding (saturation and displacement), membranes of Cos-7 cells transiently expressing rat S10-87 (CG-7)
Experimental: (§2) Membrane Preparation: Membranes were prepared from transiently transfected COS-7 cells which were grown to 100% confluence. The cells were washed twice with phosphate-buffered saline, scraped from the culture dishes into 5 ml of ice-cold phosphate-buffered saline, and centrifuged at 200×g for 5 min at 4′. The pellet was resuspended in 2.5 ml of ice-cold Tris buffer (20 mM Tris -HCl, pH 7.4 at 23°, 5 mM EDTA), and homogenized by a Wheaton tissue grinder. The lysate was subsequently centrifuged at 200×g for 5 min at 4° to pellet large fragments which were discarded. The supernatant was collected and centrifuged at 40,000×g for 20 min at 4°. The pellet resulting from this centrifugation was washed once in ice-cold Tris wash buffer and finally resuspended in a final buffer containing 50 mM Tris-HCl and 0.5 mM EDTA, pH 7.4 at 23°. Membrane preparations were kept on ice and utilized within two hr for the radioligand binding assays.
(§3) The binding profile of drugs in competition experiments was established using 7 concentrations of compound. Incubation times were 30 min for both saturation and displacement studies. […] Binding was initiated by the addition of 50 μl membrane homogenates (10-20 μg). The reaction was terminated by rapid filtration through presoaked (0.5% polyethyleneimine) filters using 48R Cell Brandel Harvester (Gaithersburg, Md.). Subsequently, filters were washed for 5 sec with ice cold buffer (50 mM Tris HCL, pH 7.4 at 4° C.), dried and placed into vials containing 2.5 ml of Readi-Safe (Beckman, Fullerton, Calif.), and radioactivity was measured using a Beckman LS 6500C liquid scintillation counter. […] Binding data were analyzed by computer-assisted nonlinear regression analysis (Accufit and Accucomp, Lundon Software, Chagrin Falls, Ohio).

[2] = target: rat 5-HT4 receptor S10-95 (CG-8) (Rattus norvegicus, UniProt Q62758); assay: [3H]GR113808 binding (saturation and displacement), COS-7 membranes, rat clone CG-8; set-up: two individual full length cDNA clones, S10-87 and S10-95, were isolated; expressed in transfected cells; host or cells: COS-7 (transient, DEAE-dextran); conditions: for effect on [3H]GR113808 binding: CG-8, concentrations up to 1 μM
Experimental: as §2
(§4) The binding profile of drugs in competition experiments was established using 10-12 concentrations of compound. Incubation times were 30 min for both saturation and displacement studies.

[3] = target: T2, rat 5-HT4 (CG-7) receptor (Rattus norvegicus, UniProt Q62758); assay: cAMP formation in intact Cos-7 cells transiently expressing CG-7; assay type: cell-based; conditions: for I. A. (intrinsic activity): CG-7, maximum response normalized to 5-HT maximum = 1.0; for effect on responses to 5-HT: CG-7, 10 μM
T2 construct: two individual full length cDNA clones, S10-87 and S10-95, were isolated; expressed in transfected cells; host or cells: COS-7 (transient, DEAE-dextran)
Experimental: (§1) Measurement of cAMP Formation: The transiently transfected Cos-7 cells were incubated in Dulbecco's modified Eagle's medium, 5 mM theophylline, 10 mM Hepes (4-[2-Hydroxyethyl]-1-piperazineethanesulfonic acid), 10 μM pargyline, and/or appropriate concentrations of antagonists for 20 minutes at 37° C., 5% CO2. […] The media was aspirated and the reaction stopped by the addition of 100 mM HCl. The plates were stored at 4° C. for 15 minutes, centrifuged for 5 minutes, 500×g to pellet cellular debris, and the supernatant aliquotted and stored at −20° C. prior to assessment of cAMP formation by radioimmunoassay (cAMP Radioimmunoassay kit, Advanced Magnetics, Cambridge, Mass.). Radioactivity was quantitated using a Packard COBRA Auto Gamma Counter equipped with data reduction software. Functional data was fitted to a four parameter logistic equation to obtain response parameters (EC50, Emax, nH; Inplot, GraphPad, San Diego, Calif.).

[4] = target: T3, human 5-HT4 receptor S10-95 (CG-17) (Homo sapiens, UniProt Q13639); assay: [3H]5-HT displacement binding, human CG-17 clone; conditions: for fold higher affinity for the human CG-17 clone: human CG-17 compared with rat clones; for activity at the CG-17 clone: [3H]5-HT displacement, up to concentration of 1 μM
T3 construct: Isolation of the full length human S10-95 cDNA clone; expressed in transfected cells; host or cells: COS-7 (transient, DEAE-dextran)
Experimental: as §2, §3

[5] = target: T4, rat 5-HT4 (CG-8) receptor (Rattus norvegicus, UniProt Q62758); assay: cAMP formation in intact Cos-7 cells transiently expressing CG-8; assay type: cell-based; conditions: for I. A. (intrinsic activity): CG-8, maximum response normalized to 5-HT maximum = 1.0; for effect on responses to 5-HT: CG-8, 10 μM
T4 construct: two individual full length cDNA clones, S10-87 and S10-95, were isolated; expressed in transfected cells; host or cells: COS-7 (transient, DEAE-dextran)
Experimental: as §1

[6] = target: T1, rat 5-HT4 receptor S10-87 (CG-7); assay: [3H]GR113808 binding (saturation and displacement), COS-7 membranes, rat clone CG-7; set-up: two individual full length cDNA clones, S10-87 and S10-95, were isolated; expressed in transfected cells; host or cells: COS-7 (transient, DEAE-dextran); conditions: for effect on [3H]GR113808 binding: CG-7, concentrations up to 1 μM
Experimental: as §2, §4

[7] = target: T5, 5-HT4 receptor, rat oesophagus (Rattus norvegicus, UniProt Q62758); conditions: Grossmann et al., 1993; cited from earlier work
T5 construct: host or cells: rat oesophagus

[8] = target: T3, human 5-HT4 receptor S10-95 (CG-17); assay: [3H]GR113808 saturation binding, human clone CG-17; conditions: human CG-17, [3H]GR113808 0.005-[…], preliminary; read-out: Kd (saturation analysis)
Experimental: as §2, §4

[9] = target: T6, 5-HT4 receptors, human brain (Homo sapiens, UniProt Q13639); conditions: Waeber et al. (1993); cited from earlier work
T6 construct: host or cells: human brain tissue

[10] = target: T7, 5-HT4 receptors, guinea pig brain tissue (Cavia porcellus, UniProt O70528); conditions: Waeber et al., 1993, Grossmann et al.; cited from earlier work
T7 construct: host or cells: guinea pig brain tissue

[11] = Affinity constants (Ki), CG-7, 10 nM [3H]5-HT, mean ± SEM, >1000 estimated from one point displacement at 1 uM
[12] = K1 (nM), CG-7, binding data using [3H]5-HT, Table 4
[13] = CG-7, stimulation of basal cAMP release
[14] = CG-8, stimulation of basal cAMP release
[15] = CG-7, 0.2-0.4 nM [3H]GR113808, single experiment, read-out: Affinity estimate K1
[16] = CG-8, 0.2-0.4 nM [3H]GR113808, single experiment, read-out: Affinity estimate K1
[17] = CG-7, stimulation of basal cAMP release, means ± S.E.M. of three experiments, read-out: EC50
[18] = CG-8, stimulation of basal cAMP release, means ± S.E.M. of three experiments, read-out: EC50

T3 sequence (Q13639 whole entry): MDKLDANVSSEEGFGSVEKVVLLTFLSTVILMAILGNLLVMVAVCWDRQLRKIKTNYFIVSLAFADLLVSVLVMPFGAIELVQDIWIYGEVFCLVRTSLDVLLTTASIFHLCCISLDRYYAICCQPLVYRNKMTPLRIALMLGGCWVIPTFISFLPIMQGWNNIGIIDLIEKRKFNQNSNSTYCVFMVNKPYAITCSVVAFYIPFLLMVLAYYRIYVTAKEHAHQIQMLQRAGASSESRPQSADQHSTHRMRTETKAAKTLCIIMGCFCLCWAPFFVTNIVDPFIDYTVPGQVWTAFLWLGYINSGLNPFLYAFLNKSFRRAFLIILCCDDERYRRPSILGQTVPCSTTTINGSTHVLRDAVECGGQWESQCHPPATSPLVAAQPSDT
T2 sequence (Q62758 1-387 isoform Q62758-2): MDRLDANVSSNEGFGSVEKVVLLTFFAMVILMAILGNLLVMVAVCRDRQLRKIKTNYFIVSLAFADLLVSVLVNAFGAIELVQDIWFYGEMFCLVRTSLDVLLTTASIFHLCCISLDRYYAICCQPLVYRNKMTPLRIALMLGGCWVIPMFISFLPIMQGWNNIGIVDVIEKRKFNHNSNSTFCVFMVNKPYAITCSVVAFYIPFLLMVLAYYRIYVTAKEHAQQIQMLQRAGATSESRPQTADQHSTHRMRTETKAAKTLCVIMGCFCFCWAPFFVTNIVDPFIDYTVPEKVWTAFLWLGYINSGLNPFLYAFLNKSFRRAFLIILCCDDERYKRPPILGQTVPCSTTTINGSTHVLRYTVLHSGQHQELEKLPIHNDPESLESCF
T1 sequence (Q62758 1-387 isoform Q62758-2): as above
T4 sequence (Q62758 whole entry): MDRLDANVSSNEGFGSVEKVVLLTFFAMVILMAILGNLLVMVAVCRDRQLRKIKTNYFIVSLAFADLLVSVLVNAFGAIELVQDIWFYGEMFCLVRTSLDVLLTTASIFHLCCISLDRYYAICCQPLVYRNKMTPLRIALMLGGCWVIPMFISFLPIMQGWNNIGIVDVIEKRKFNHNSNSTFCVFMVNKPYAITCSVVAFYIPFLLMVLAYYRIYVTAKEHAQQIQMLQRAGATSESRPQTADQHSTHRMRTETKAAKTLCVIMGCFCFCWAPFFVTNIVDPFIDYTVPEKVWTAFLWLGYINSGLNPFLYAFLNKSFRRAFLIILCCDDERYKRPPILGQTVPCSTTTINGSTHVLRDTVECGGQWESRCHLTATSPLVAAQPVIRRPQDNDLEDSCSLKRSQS
rat 5-HT4 receptor S10-95 (CG-8), sequence (Q62758 whole entry): as above
T7 sequence (O70528 whole entry): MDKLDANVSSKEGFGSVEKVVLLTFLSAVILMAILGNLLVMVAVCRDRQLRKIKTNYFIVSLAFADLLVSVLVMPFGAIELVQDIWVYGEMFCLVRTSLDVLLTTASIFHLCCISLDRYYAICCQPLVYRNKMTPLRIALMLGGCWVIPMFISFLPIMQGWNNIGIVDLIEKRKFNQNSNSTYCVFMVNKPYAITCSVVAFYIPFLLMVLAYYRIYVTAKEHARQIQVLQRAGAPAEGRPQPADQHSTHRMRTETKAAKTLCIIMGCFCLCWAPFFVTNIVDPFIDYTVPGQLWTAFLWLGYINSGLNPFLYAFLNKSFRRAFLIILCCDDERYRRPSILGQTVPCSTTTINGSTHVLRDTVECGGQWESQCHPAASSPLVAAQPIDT
T6 sequence (Q13639 whole entry): as the sequence (Q13639 whole entry) above
T5 sequence (Q62758 whole entry): as the sequence (Q62758 whole entry) above

What does the source list for `NCCc1c[nH]c2ccc(C(N)=O)cc12` [5-CT, 5-carboxyamidotryptamine]?
Ki [1, 11]: > 1000 nM; Ki [1, 12]: > 1000 nM; Ki ([1]; Kf values estimated, S10, [3H]5-HT displacement, low affinity compounds): > 1000 nM; Ki [2]: > 10 µM; EC50 [3]: 5.57 µM; I. A. (intrinsic activity) [3]: 0.85; times less potent than 5-HT [3, 13]: ~200 fold; Ki [4]: > 10 µM; EC50 [5]: 1.41 µM; I. A. (intrinsic activity) [5]: 1.2; fold lower affinity than 5-HT [5, 14]: about 30 fold; Ki [6, 15]: > 10 µM

For `NCCc1c[nH]c2ccc(O)cc12` [5-HT, serotonin], which “BH (percentage of high affinity sites)” value ([2]; CG-8, [3H]GR113808) is on record?
The value was 24%.

What about the “nH (Hill coefficient)” value ([2]; CG-8, [3H]GR113808) of the same molecule?
The value was “nH = 0.67”.

What about the “stimulation of basal cAMP release” value ([3]; CG-7, 1 μM, single dose preliminary study) of the same molecule?
The value was “about 30 fold”.

And the “maximum cAMP release” value ([3]; CG-7, FIG. 9)?
The value was 0.42±0.03 pmol/ml/10 min.

What about the “I. A. (intrinsic activity)” value [3] of the same molecule?
The value was 1.0.

What about the “stimulation of basal cAMP release” value ([5]; CG-8, 1 μM, single dose preliminary study) of the same molecule?
The value was “about 30 fold”.

And the “maximum cAMP release” value ([5]; CG-8, FIG. 10)?
Its value is 0.57±0.04 pmol/ml/10 min.

And the “I. A. (intrinsic activity)” value [5]?
Its value is 1.0.

And the “BH (percentage of high affinity sites)” value ([6]; CG-7, [3H]GR113808)?
The value was 22%.

What about the “nH (Hill coefficient)” value ([6]; CG-7, [3H]GR113808) of the same molecule?
Its value is “nH = 0.62”.

What does the source list for `COc1ccc2[nH]cc(CCN)c2c1` [5-MeOT, 5-methoxytryptamine]?
Ki [1, 11]: 27.5 ± 5 nM; Ki [1, 12]: 27 ± 5 nM; Ki [2]: 0.518 µM; nH (Hill coefficient) ([2]; CG-8, [3H]GR113808): nH = 0.66; EC50 [3]: 0.021 ± 0.006 µM; I. A. (intrinsic activity) [3]: 1.0; times less potent than 5-HT [3, 13]: approximately equipotent; Ki [4]: 0.071 µM; fold less potent at the human CG-17 ([4]; human CG-17 compared to the rat clones): approximately 3 fold; fold higher affinity for the human CG-17 clone [4]: ~5 fold; EC50 [5]: 0.031 ± 0.013 µM; I. A. (intrinsic activity) [5]: 1.0; fold lower affinity than 5-HT [5, 14]: approximately equipotent; Ki ([6]; Affinity estimate K1, CG-7, 0.2-0.4 nM [3H]GR113808, single experiment): 0.438 µM; BH (percentage of high affinity sites) ([6]; CG-7, [3H]GR113808): 17%; nH (Hill coefficient) ([6]; CG-7, [3H]GR113808): nH = 0.57; Ki ([6]; KH (affinity for the high affinity state), CG-7, [3H]GR113808): 0.014 µM; Ki ([6]; read-out: KL (affinity for the low affinity state), CG-7, [3H]GR113808): 0.658 µM

Which Ki [1] does the source give for `CCCN(CCC)C1CCc2cccc(O)c2C1` (centres unmarked) [8-OH-DPAT, 8-hydroxy-2-(di-n-propylamino)tetralin] here?
The Ki was > 1000 nM.

What about the Ki [1, 11] of the same molecule?
Its Ki is > 1000 nM.

And the “effect on [3H]GR113808 binding” value [2]?
The value was “no effect”.

And the Ki [4]?
The Ki was > 1 µM.

And the “activity at the CG-17 clone” value [4]?
The value was “inactive”.

And the “effect on [3H]GR113808 binding” value [6]?
The value was “no effect”.

Which Ki [1, 11] does the source give for `COc1cc(N)c(Cl)cc1C(=O)NC1CCN(CCCOc2ccc(F)cc2)CC1OC` (centres unmarked) [Cisapride, cisapride] here?
Its Ki is 10.9 ± 0.3 nM.

What about the Ki [1, 12] of the same molecule?
The Ki was 11 ± 0.3 nM.

And the Ki [2, 16]?
Its Ki is 0.084 µM.

What about the “BH (percentage of high affinity sites)” value ([2]; CG-8, [3H]GR113808) of the same molecule?
The value was 11%.

What about the “nH (Hill coefficient)” value ([2]; CG-8, [3H]GR113808) of the same molecule?
Its value is “nH = 0.83”.

What about the Ki ([2]; CG-8, [3H]GR113808, read-out: KH (affinity for the high affinity state)) of the same molecule?
The Ki was 0.0027 µM.

What about the Ki ([2]; read-out: KL (affinity for the low affinity state), CG-8, [3H]GR113808) of the same molecule?
Its Ki is 0.105 µM.

And the “agonist / antagonist character” value ([3]; CG-7, cAMP response)?
The value was “partial agonists”.

What about the “I. A. (intrinsic activity)” value [3] of the same molecule?
The value was 1.2.

What about the “times less potent than 5-HT” value [3, 13] of the same molecule?
Its value is “about 10 fold”.

And the EC50 [3, 17]?
The EC50 was 0.191 ± 0.026 µM.

And the “agonist / antagonist character” value ([5]; CG-8, cAMP response)?
Its value is “partial agonists”.

And the “I. A. (intrinsic activity)” value [5]?
The value was 1.4.

And the EC50 [5, 18]?
Its EC50 is 0.413 ± 0.199 µM.

For `Cn1cc(C(=O)OCC2CCN(CCNS(C)(=O)=O)CC2)c2ccccc21` [GR113808], which “affinity from functional receptor assays” value [7] is on record?
The value was “about 0.3 nM”.

With `O=C(c1ccc(F)cc1)C1CCN(CCn2c(=O)[nH]c3ccccc3c2=O)CC1` [Ketanserin, ketanserin] as the molecule, how does the Ki [1] read?
Its Ki is > 1000 nM.

What about the Ki [1, 11] of the same molecule?
The Ki was > 1000 nM.

And the “effect on [3H]GR113808 binding” value [2]?
Its value is “no effect”.

What about the “activity at the CG-17 clone” value [4] of the same molecule?
Its value is “inactive”.

What about the Ki ([4]; read-out: Ki) of the same molecule?
Its Ki is > 1 µM.

And the “effect on [3H]GR113808 binding” value [6]?
The value was “no effect”.

With `CNS(=O)(=O)Cc1ccc2[nH]cc(CCN(C)C)c2c1` [Sumatriptan, sumatriptan] as the molecule, how does the Ki [1] read?
The Ki was > 1000 nM.

What about the Ki [1, 11] of the same molecule?
The Ki was > 1000 nM.

And the “effect on [3H]GR113808 binding” value [2]?
The value was “no effect”.

What about the “activity at the CG-17 clone” value [4] of the same molecule?
Its value is “inactive”.

What about the Ki ([4]; read-out: Ki) of the same molecule?
Its Ki is > 1 µM.

What about the “effect on [3H]GR113808 binding” value [6] of the same molecule?
Its value is “no effect”.

Which results are given for `Cn1cc(C(=O)OCC2CCN(CCNS(C)(=O)=O)CC2)c2ccccc21` [[^3H]GR113808]?
Kd [8]: 0.0002 µM; Kd [9]: 0.00023 to 0.00037 µM; Kd [10]: 0.00013 to 0.0002 µM

Which results are given for `CCN(CC)C(=O)[C@@H]1C=C2c3cccc4[nH]cc(c34)C[C@H]2N(C)C1` [d-LSD]?
Ki [2, 16]: > 10 µM; Ki [6, 15]: > 10 µM

What does the source list for `CSc1ccc2c(c1)C(N1CCN(C)CC1)Cc1ccccc1S2` (centres unmarked) [methiothepin]?
effect on responses to 5-HT [3]: not affected; effect on responses to 5-HT [5]: not affected

Which “effect on responses to 5-HT” value [3] does the source give for `O=C(CCCN1CCC2(CC1)C(=O)NCN2c1ccccc1)c1ccc(F)cc1` [spiperone] here?
The value was “not affected”.

What about the “effect on responses to 5-HT” value [5] of the same molecule?
The value was “not affected”.

With `CC(N)Cc1c[nH]c2ccc(O)cc12` (stereo not drawn) [α-Me-5-HT] as the molecule, how does the Ki [2, 16] read?
The Ki was 1.85 µM.

What about the “I. A. (intrinsic activity)” value [3] of the same molecule?
The value was 0.90.

And the “times less potent than 5-HT” value [3, 13]?
The value was “about 10 fold”.

And the EC50 [3, 17]?
The EC50 was 0.25 ± 0.091 µM.

What about the Ki ([4]; human CG-17, 10 nM [3H]5-HT, single experiment, >1,000 from one point displacement at 1 μM, read-out: Ki) of the same molecule?
The Ki was 0.0016 µM.

What about the “fold higher affinity for the human CG-17 clone” value [4] of the same molecule?
Its value is “approximately 100 fold”.

And the “I. A. (intrinsic activity)” value [5]?
The value was 1.0.

What about the “fold lower affinity than 5-HT” value [5, 14] of the same molecule?
The value was “approximately 20 fold”.

What about the EC50 [5, 18] of the same molecule?
The EC50 was 1.04 µM.

What about the Ki [6, 15] of the same molecule?
The Ki was 2.25 µM.
